Data published in patent publication US11639345B2, “Methionine metabolic pathway inhibitors” (MIGAL—GALILEE RESEARCH INSTITUTE LTD., priority 2018, dated 2023).

Key:
Tobacco CGS = molecular target: T1, Tobacco CGS (Nicotiana tabacum, UniProt Q9ZPL5); assay: Micro Scale Thermophoresis (MST) direct binding to CGS; parameters: 6xHIS (N, cleaved yes); GB1 solubility tag (N, cleaved yes); made in house; host or cells: E. coli BL21; conditions: score 0-5; binding to labelled Tobacco CGS
T1 sequence (Q9ZPL5 79-540): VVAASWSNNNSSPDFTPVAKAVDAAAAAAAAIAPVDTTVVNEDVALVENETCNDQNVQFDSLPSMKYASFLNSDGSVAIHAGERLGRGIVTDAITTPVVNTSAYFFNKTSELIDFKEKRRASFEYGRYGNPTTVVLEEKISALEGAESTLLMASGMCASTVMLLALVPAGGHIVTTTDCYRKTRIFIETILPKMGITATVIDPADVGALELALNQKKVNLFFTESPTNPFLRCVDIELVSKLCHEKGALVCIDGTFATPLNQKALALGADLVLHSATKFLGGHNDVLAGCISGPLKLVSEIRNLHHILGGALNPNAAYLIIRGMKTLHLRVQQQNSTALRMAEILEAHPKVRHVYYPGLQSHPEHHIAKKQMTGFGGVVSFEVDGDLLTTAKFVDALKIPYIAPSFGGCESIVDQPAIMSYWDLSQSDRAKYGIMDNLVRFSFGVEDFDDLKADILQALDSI
Method: The direct binding of the compounds of the embodiments to the CGS was tested by Micro Scale Thermophoresis (MST). In the MST assay, the CGS protein was labelled with a fluorophore, the samples were heated, and changes in fluorescence were measured as a function of the ligand concentration. In the MST assay, similar to the expression and purification described above, the recombinant Tobacco CGS protein was expressed in E. coli BL21 cells and purified to homogeneity. For that particular purpose, the pET-11 vector containing the DNA sequence of Tobacco CGS with an N-terminus […] tag followed by a TEV-cleavable GB1 solubility tag was cloned and transformed into the bacteria cells. Cells were cultured to OD=0.8, and protein expression was induced by the addition of 1 mM IPTG. The cells were cultured for additional 16 hours temperature 25° C. Following cellular lysis, the soluble fraction was passed through the nickel column and the bound HIS-tagged protein was eluted by 300 mM imidazole. Then, the tags […] and GB1 were cleaved in dialysis o/n and the mixtures passed again through the nickel column to separate the CGS from the TEV and HIS-GB1 constructs. As a final step the CGS was run on S75 size exclusion chromatography. Thus, the MST assay was performed to measure the biding of the compounds to the CGS protein. For this purpose, the CGS was labelled with commercially available amine reactive fluorophore (Cat # MO-[…], NanoTemper) according to the manufacture instructions. The MST binding curves were then measured using the Monolith NT.115 apparatus by incubating the labelled protein with the indicated compounds in a dose-response manner.

[1] = system: E. coli lacking the endogenic MetB CGS gene, transformed to express the CGS from Arabidopsis; assay: Growth of engineered E. coli expressing Arabidopsis CGS in M9 minimal media, with and without methionine; format: cell-based; conditions: for E. coli Assay LE395 (0-5): score 0-5, growth of E. coli with Arabidopsis CGS gene in M9 minimal media; for E. coli specificity (MOA): score, growth with vs without external methionine (40 mg/L)
Method: In addition to the direct binding evaluation, specific assay to test the compounds activity and specificity were also developed. In this assay, E. coli cells, lacking the endogenic MetB CGS gene and transformed to express the CGS from Arabidopsis, were used. These cells were grown on M9 minimal media with and without external methionine supplemented to the cells, in the presence of the compounds of the embodiments. These selected compounds of the embodiments, capable of inhibiting the cell growth on M9, but incapable of affecting the cell growth when supplemented with methionine, were validated as methionine-pathway specific inhibitors.
In this assay, Methionine auxotroph E. coli mutant was transformed with PQE-30 vector containing the Arabidopsis CGS gene as previously described in Yael Hacham et al., Plant Physiol., February 2002, 128(2): 454-462. In order to test the effect of the small molecule inhibitors on the CGS and methionine pathway, growth curves of the E. coli in M9 minimal media with […] were measured with and without the addition of external methionine (40 mg/L) in the presence of variable compound concentrations. E. coli growth curves were measured by following the optical density at 600 nm of bacteria in 96 well-plate placed within Tecan M200 plate reader in orbital shaking mode at 37° C. The slope of each curve was estimated using the ‘linest’ function in Excel.

Arabidopsis thaliana = Arabidopsis thaliana root growth inhibition; format: in vivo; conditions: 168 h, root length ratio vs DMSO control, 50 μM compound, lower values indicate shorter root, larger effect, read-out: Arabidopsis (relative to DMSO)
Method: Finally, FIGS. 7a-7o are the photos of the Arabidopsis thaliana plants and the inhibition of their roots growth by the compounds of the present invention. These experiments were conducted as follows. Seeds were washed with 70% ethanol for one minute and then with sterile water. Sterilisation was performed with 50% bleaching solution (3%) and 0.2% Triton x-100 for ten minutes followed by a five-time wash with sterile water. The seeds were placed in six well-plates with half Murashige and Skoog medium (MS; Duchefa, Haarlem, Netherlands), containing 1% sucrose (w/v), pH 5.8. The plates with Arabidopsis thaliana seeds were placed at 4° C. for two days and then transferred for seven days to growth chamber (22±2° C.) at day/light cycles of 16/8 h. The plates were placed vertically. In each plate, a control including 0.1% DMSO in the medium was added. The compounds of the present invention were tested for their herbicidal efficiency by diluting 1000 times a 50 mM stock in DMSO leading to a final concentration of 50 μM with 0.1% DMSO.
In Tables 1, 2 and 4 above, Arabidopsis root length was measured after addition of 50-μM compound compared with the negative control (DMSO) treatment. Length values indicate the ratio between non-treated plates ([…]) and the length after the addition of 50 uM of each compound. Lower values indicate shorter root length, and consequently, larger effect.

Roquette = Roquette assay spray; format: in vivo

| SMILES | MST Tobacco (0-5) (Tobacco CGS) | E. coli Assay LE395 (0-5) [1] | E. coli specificity (MOA) [1] | activity at 50 µM (Arabidopsis thaliana) [%] | Roquette assay spray (twice average) (Roquette) | TEV (relative to DMSO) (TEV (relative to DMSO)) | Roquette assay spray (single average) (Roquette) |
| --- | --- | --- | --- | --- | --- | --- | --- |
| COc1cccc(C(=O)Nc2cccc(-c3nc(C)cc(=O)[nH]3)c2)c1 [IML-11] | 3 | 3 | 4 | – | – | – | – |
| Cc1cc(=O)[nH]c(-c2cccc(NC(=O)c3ccc(O)cc3F)c2)n1 [IML-14] | 3 | 3 | 4 | – | – | – | – |
| Cc1cc(=O)[nH]c(-c2ccc(NC(=O)c3c(O)cccc3F)cc2)n1 [IML-15] | 1 | 3 | 4 | – | – | – | – |
| Cc1cc(=O)[nH]c(-c2cccc(NC(=O)c3ccccc3OC(F)F)c2)n1 [IML-22] | 3 | 2 | 4 | – | – | – | – |
| CCc1ccc(C(=O)Nc2cccc(-c3nc(C)cc(=O)[nH]3)c2)cc1 [IML-24] | – | – | – | 35 | 2.0 | – | – |
| COc1ccnc(C(=O)Nc2cccc(-c3nc(C)cc(=O)[nH]3)c2)c1 [IML-62] | 4 | 3 | 5 | – | – | – | – |
| Cc1ccc(C(=O)Nc2cccc(-c3nc(C)cc(O)n3)c2)nc1 [IML-66] | 3 | 3 | 4 | – | – | – | – |
| COc1cccc(C(=O)Nc2cccc(-n3cc(C)nc3O)c2)c1 [IML-67] | – | 3 | 4 | – | – | – | – |
| COc1cccc(C(=O)Nc2cccc(-c3cc(C(F)(F)F)[nH]n3)c2)c1 [IML-70] | – | 3 | 5 | – | – | – | – |
| CCc1ccccc1NC(=O)CNC(=O)c1ccc2nn[nH]c2c1 [IML-102] | 5 | – | – | – | – | – | – |
| CC(=O)Nc1cccc(NC(=O)CNC(=O)c2ccc3nn[nH]c3c2)c1 [IML-110] | 5 | 2 | 4 | – | – | – | – |
| CCc1ccccc1NC(=O)CNC(=O)c1ccc2c(c1)nnn2CC [IML-112] | 4 | – | – | – | – | – | – |
| CCc1ccccc1NC(=O)CN(C)C(=O)c1ccc2nc[nH]c2c1 [IML-113] | 5 | – | – | – | – | – | – |
| O=C(O)C1CN(C(=O)c2ccn(-c3ccccc3)n2)c2ccccc21 (stereo not drawn) [IML-121] | – | 2 | 4 | 9 | 4.0 | 0.28 | 3.0 |
| O=C(O)C1CN(C(=O)c2cc(-c3ccccc3)on2)c2ccccc21 (stereo not drawn) [IML-124] | – | 2 | 5 | 0 | 3.0 | 0.30 | – |
| O=C(O)C1CN(C(=O)c2cc(-c3ccccc3)[nH]n2)c2ccccc21 (stereo not drawn) [IML-125] | – | – | – | 45 | – | – | – |
| O=C(CNC(=O)c1ccc2[nH]ncc2c1)Nc1ccccc1 [IML-134] | 3 | 3 | 4 | 67 | – | – | – |

| SMILES | MST Tobacco (0-5) (Tobacco CGS) | E. coli Assay LE395 (0-5) [1] | E. coli specificity (MOA) [1] | activity at 50 µM (Arabidopsis thaliana) [%] | Roquette assay spray (twice average) (Roquette) | TEV (relative to DMSO) (TEV (relative to DMSO)) | Roquette assay spray (single average) (Roquette) |
| --- | --- | --- | --- | --- | --- | --- | --- |
| O=C(c1cc(-c2ccccc2)on1)N1CCc2cc([N+](=O)[O-])ccc21 [IML-161] | – | – | – | – | – | 0.14 | – |
| O=C(O)C1CN(C(=O)c2cnn(-c3ccccc3)c2)c2ccccc21 (stereo not drawn) [IML-162] | – | 3 | 5 | 38 | – | 0.20 | 2.0 |
| O=C(O)C1Cc2ccccc2N1C(=O)c1cc(-c2ccccc2)on1 (stereo not drawn) [IML-163] | – | 4 | 5 | 0 | 4.0 | 0.31 | – |
| O=C(O)CC1CN(C(=O)c2cc(-c3ccccc3)on2)c2ccccc21 (stereo not drawn) [IML-164] | – | – | – | 4 | 3.0 | 0.11 | 3.0 |
| COc1cccc(-c2cc(C(=O)N3CC(C(=O)O)c4ccccc43)no2)c1 (stereo not drawn) [IML-166] | – | – | – | 0 | 4.0 | 0.06 | 2.0 |
| O=C(O)C1CN(C(=O)c2cc(-c3ccccc3Cl)on2)c2ccccc21 (stereo not drawn) [IML-167] | – | – | – | 0 | 3.5 | 0.31 | 1.3 |
| O=C(O)C1CN(C(=O)c2cc(-c3cccnc3)on2)c2ccccc21 (stereo not drawn) [IML-180] | 3 | 1 | 5 | 58 | – | 0.25 | – |
| O=C(O)C1CN(C(=O)c2cc(-c3cccc(Cl)c3)on2)c2ccccc21 (stereo not drawn) [IML-181] | – | – | – | 0 | – | 0.22 | 0.5 |
| O=C(c1ccc2[nH]ncc2c1)N1CCCC(Nc2ccccc2)C1 (stereo not drawn) [IML-203] | – | – | – | 50 | – | – | – |
| O=C(c1ccc2[nH]ncc2c1)N1CCC(Nc2ccccc2)C1 (stereo not drawn) [IML-204] | – | – | – | 35 | – | – | – |
| Cc1c(Cl)cccc1Nc1nc(-c2cccc(NC(=O)c3ccccc3)c2)cs1 [IML-211] | – | 4 | – | – | – | – | – |
| COc1ccc(Cc2nc(-c3cccc(NC(=O)c4ccccc4F)c3)no2)cc1 [IML-217] | 2 | 3 | 5 | – | – | – | – |
| COc1cccc(Nc2nc(-c3cccc(N4C(=O)c5ccccc5C4=O)c3)cs2)c1 [IML-218] | – | 3 | 5 | – | – | – | – |
| O=C(Nc1cccc(-c2cn(Cc3ccccc3)nn2)c1)c1cc(C(F)(F)F)ccn1 [IML-223] | – | 5 | 5 | – | – | – | – |
| O=C(Nc1cccc(-c2cn(Cc3ccccc3)nn2)c1)c1cccc(Cl)c1 [IML-232] | – | – | – | 68 | 4.0 | – | 1.0 |
| CCc1nc(-c2cncc(NC(=O)c3cccc(Cl)c3)c2)no1 [IML-234] | – | – | – | – | 3.0 | 0.75 | 1.5 |
| COc1cccc(-c2cc(C(=O)N3C[C@H](C(=O)O)c4ccccc43)no2)c1 [IML-238] | – | – | – | 3 | 2.0 | 0.29 | – |
